The text below walks through data of patent US9855273B2, “Combination therapy for MDS” (priority 2013, dated 2018).

For one assay, the system named is TRAF6/NF-κB signaling. On the procedure:
(§1) Total protein lysates were obtained from cells by lysing the samples in cold RIPA buffer (50 mM Tris-HCl, 150 mM NaCl, 1 mM EDTA, 1% Triton X-100 and 0.1% SDS), in the presence of PMSF, sodium orthovanadate, protease and phosphatase inhibitors. After being re-suspended in RIPA cells were briefly sonicated. Protein concentration was evaluated by a BCA assay (Pierce). For immunoprecipitation, TRAF6 or IRAK1 antibodies (2 μg) were added to cell lysates (10 mg) for 3 h at 4° C. and captured by the addition of Protein A/G Plus beads (sc-2003; Santa Cruz) as described before (Starczynowski et al., 2011). The immune complexes were washed with lysis buffer followed by the addition of SDS sample buffer. The bound proteins were separated by SDS-polyacrylamide gel electrophoresis, transferred to nitrocellulose membranes, and analyzed by immunoblotting. Western blot analysis was performed with the following antibodies: TRAF6 (sc-7221; Santa Cruz), IRAK1 (sc-7883; Santa Cruz), ubiquitin (sc-8017; Santa Cruz), IKKβ (2370; Cell Signaling Technology), GAPDH (5174; Cell Signaling Technology), p38 MAPK (9212; Cell Signaling Technology), phopho-p38 MAPK (4631; Cell Signaling Technology), phospho-IKKα/β (2697; Cell Signaling Technology), phospho-IRAK1 (S376) (PAB0497; Abnova), phospho-IRAK1 (T209) (A1074; AssaybioTech), phospho-ERK (4695; Cell Signaling Technology), Lck (2752; Cell Signaling Technology), phospho-Lck (Tyr505) (2751; Cell Signaling Technology), IRAK4 (4363; Cell Signaling Technology), phospho-IRAK4 (Thr345/Ser346) (7652; Cell Signaling Technology), Src (2102; Cell Signaling Technology), Phospho-Src (Tyr416) (2113; Cell Signaling Technology), BCL-2 (2870; Cell Signaling Technology) and Actin (4968; Cell Signaling Technology).

Another assay concerns the target IRAK1 (pIRAK1T209) (Homo sapiens, UniProt P51617). As to the method:
as §1

The test system of another assay is BCL2. The settings on record: 10 μM. On the procedure: as §1
For the next assay, the target named is pp60^Src (Homo sapiens, UniProt P12931). The settings on record: read-out: IC50 pp60Src; Powers et al., 2006; cited from earlier work.
Sequence of pp60^Src (P12931 whole entry): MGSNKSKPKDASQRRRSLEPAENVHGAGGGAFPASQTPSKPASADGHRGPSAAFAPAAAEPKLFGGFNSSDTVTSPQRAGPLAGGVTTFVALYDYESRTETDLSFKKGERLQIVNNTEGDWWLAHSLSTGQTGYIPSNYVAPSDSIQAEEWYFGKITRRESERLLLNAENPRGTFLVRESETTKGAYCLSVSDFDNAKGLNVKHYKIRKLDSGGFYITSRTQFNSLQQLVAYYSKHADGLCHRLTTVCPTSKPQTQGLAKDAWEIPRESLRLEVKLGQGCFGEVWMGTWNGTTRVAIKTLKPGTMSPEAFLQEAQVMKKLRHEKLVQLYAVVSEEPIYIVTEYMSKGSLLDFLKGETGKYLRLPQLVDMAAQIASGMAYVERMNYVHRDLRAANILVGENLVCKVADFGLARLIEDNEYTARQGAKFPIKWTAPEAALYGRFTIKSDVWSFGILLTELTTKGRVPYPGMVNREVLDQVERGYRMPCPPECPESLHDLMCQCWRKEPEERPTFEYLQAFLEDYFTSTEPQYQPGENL
The target of the next assay is IRAK1 (Homo sapiens, UniProt P51617). As to conditions: Powers et al., 2006, cited from earlier work.
Sequence of IRAK1 (P51617 whole entry, species assumed): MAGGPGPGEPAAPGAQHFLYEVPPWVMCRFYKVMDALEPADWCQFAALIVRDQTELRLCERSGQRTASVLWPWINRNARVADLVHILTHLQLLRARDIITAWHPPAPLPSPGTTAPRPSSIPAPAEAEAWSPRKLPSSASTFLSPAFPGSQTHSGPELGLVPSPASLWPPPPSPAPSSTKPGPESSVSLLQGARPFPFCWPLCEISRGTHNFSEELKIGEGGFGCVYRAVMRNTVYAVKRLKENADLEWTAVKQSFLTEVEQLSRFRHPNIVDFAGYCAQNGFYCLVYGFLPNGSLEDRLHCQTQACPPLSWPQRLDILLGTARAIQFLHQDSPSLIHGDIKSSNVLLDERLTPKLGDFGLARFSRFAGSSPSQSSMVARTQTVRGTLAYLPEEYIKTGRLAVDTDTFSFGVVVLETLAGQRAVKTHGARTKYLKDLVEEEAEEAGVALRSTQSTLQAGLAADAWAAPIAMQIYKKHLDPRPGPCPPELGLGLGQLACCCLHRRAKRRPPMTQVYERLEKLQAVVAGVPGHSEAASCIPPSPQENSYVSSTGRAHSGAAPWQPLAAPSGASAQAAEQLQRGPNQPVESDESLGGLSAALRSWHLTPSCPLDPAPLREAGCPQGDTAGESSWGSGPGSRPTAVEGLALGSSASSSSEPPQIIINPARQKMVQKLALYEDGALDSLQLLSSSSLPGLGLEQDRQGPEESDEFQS
Another assay relates to NF-κB (RelA/p65). The settings on record: MDS/AML cell lines (THP1, HL60), 10 μM, 24 hrs. As to the method: Annexin V analysis was carried out as previously described (Fang et al., 2012). Cells were stained after either drug treatment or lentiviral transduction with Annexin V (eBioscience) and propidium iodide (Sigma-Aldrich), or 7AAD (eBioscience) according to the manufacturer's instructions. Analysis was performed using BD FACSCalibur or FACSCanto flow cytometer with either CellQuest or Diva software. For in vitro growth assays, cell expansion in liquid culture was determined based on trypan blue exclusion using an automated cell counter (BioRad TC10). For experiments beyond 48 hrs, cells were replenished with fresh media and drug every second day. For primary patient marrow cells, cell were treated with a single inhibitor dose and counted 24 and 48 hours later. NF-κB DNA-binding assay Nuclear lysates were isolated from treated cells as previously described (Starczynowski et al., 2011). NF-κB (p65) DNA binding was measured using an ELISA-based assay according to the manufacturer's recommendations (KHO0371, Invitrogen)

The test system of another assay is MDS/AML cell lines. Kind of assay: Colony formation in methylcellulose, MDS/AML cell lines. It counts as cell-based, human.
Assay [1] relates to normal cord blood-derived CD34+ cells. The experiment in a line: Growth and viability of normal CD34+ cells. It counts as cell-based, human. As to conditions: even high doses. As to the method: Acute myeloid leukemic cell lines, HL60, THP1, and TF-1 were purchased from the American Type Culture Collection. MOLM13 were purchased from AddexBio. The myelodysplastic cell line, MDS-L, was provided by Dr. Kaoru Tohyama (Kawasaki Medical School, Okayama, Japan) (Matsuoka et al., 2010). Cell-lines were cultured in RPMI 1640 medium with 10% FBS and 1% penicillin-streptomycin. Additionally, both the MDSL and TF-1 cell lines were cultured in the presence of 10 ng/mL human recombinant IL-3 (Stemcell Technologies). […] Human CD34+ UCB cells and primary MDS/AML cells were maintained in StemSpan Serum-Free Expansion Media (Stemcell Technologies) supplemented with 10 ng/mL of recombinant human stem cell factor (SCF), Flt3 ligand (Flt3L), thrombopoietin (TPO), IL-3, and IL-6 (Stemcell Technologies).

The subject of a further assay is MDSL cells. The experiment in a line: MDSL xenograft, cells pre-treated in vitro, NSG mice. It counts as in vivo. As to the method: Xenograftment of NOD/SCID-IL2Rγ(NSG) and NSG-hSCF/hGM-CSF/hIL3 (NSGS) MDSL cells (1×10^6-5×10^6) were injected into the tail veins of 8-week old sublethally irradiated ([…]) NSG or NSG animals engineered to express human SCF, GM-CSF, and IL3 (NSGS) as previously described (Wunderlich et al., 2010). Mice were monitored by performing complete blood counts (Drew Hemavet 950FS). Following red cell lysis, human MDSL cells were identified by hCD45-FITC staining. In vivo delivery of IRAK-Inh approach is adapted from previous reports (Yang et al., 2011): IRAK-Inh was diluted in DMSO (5 mM) and further dissolved in sterile phosphate buffered saline (PBS; pH 7.2). Animals were injected i.p. with 2.12 mg/kg IRAK-Inh 3× weekly.
To determine whether IRAK-Inh can delay human MDS-like disease in vivo, MDSL were pre-treated with IRAK-Inh (10 μM) for 24 hrs in vitro and subsequently injected intravenously (i.v.) into NSG (5×10^6 cells) and NSGS (1×10^6 cells) recipient mice (FIG. 4A). This approach permitted us to evaluate the cell autonomous effect of IRAK-Inh on MDS cell viability and engraftment without altering endogenous IRAK1 function in the mouse.

SMILES strings stand for the structures. Read-outs that look alike come from different tables or passages of the source. Some results are limits rather than exact numbers.

Sequence of IRAK1 (pIRAK1T209) (P51617 whole entry): as the sequence (P51617 whole entry, species assumed) above
Method for MDS/AML cell lines: The effect of IRAK-Inh on leukemic progenitor function was evaluated in methylcellulose containing IRAK-Inh. […] As an alternative approach, MDS/AML cells were pre-treated with IRAK-Inh for 24 hours and then plated in methylcellulose.

As to `O=C(Nc1nc2ccccc2n1CCN1CCOCC1)c1cccc([N+](=O)[O-])c1` [IRAK-Inh, N-(2-morpholinylethyl)-2-(3-nitrobenzoylamido)-benzimidazole], in the assay with TRAF6/NF-κB signaling (10 μM for 24 hrs), the “p100/p52 processing (non-canonical NF-κB)” value was “completely blocked”. Also, the pIKKα/IKKβ result in the assay on TRAF6/NF-κB signaling (10 μM for 24 hrs, vector- and TRAF6-expressing cells) is listed as “reduced pIKKα/IKKβ”. In the assay on TRAF6/NF-κB signaling (THP1, 10 μM, 24 hrs), the “polyubiquitinated TRAF6” value is given as “reduced polyubiquitinated TRAF6”. The “phosphorylated IRAK1 reduced by” value on IRAK1 (pIRAK1T209) (10 μM, 24 hrs, cell lines and patient marrow cells) is recorded as approximately 70%. Further, the “phosphorylation and K63-linked ubiquitination of immunoprecipitated IRAK1” value on IRAK1 (pIRAK1T209) (THP1, 10 μM, 24 hrs) was “reduced phosphorylation and K63-linked ubiquitination”. Moreover, on IRAK1 (pIRAK1T209) (cells with lentiviral IRAK1 or TRAF6 overexpression), the “pIRAK1T209 inhibited by” value is listed as approximately 50%. Further, the “kinases with structural homology to IRAK1 targeted in cells” value at IRAK1 (pIRAK1T209) (malignant myeloid cells, IRAK1, IRAK4, Src, Lck immunoblots) is on record as “only IRAK1 is a target”. In addition, the BCL2 expression result in the assay on BCL2 is “increased in several of the cell lines examined”. In addition, the IC50 at pp60^Src was more than 10000 nM; at IRAK1 (read-out: IC50 IRAK1, FIG. 9A legend) it was 300 nM; at IRAK1 (read-out: IC50 IRAK1 kinase activity, Wang et al., 2009), 750 nM. Moreover, the “DNA bound and active RelA/p65 decreased by” value in the assay on NF-κB (RelA/p65) is reported as approximately 50%. For the same compound, in the assay on MDS/AML cell lines (all MDS/AML cells, continuous treatment), the “colony formation, methylcellulose containing inhibitor” value is listed as “significantly fewer colonies”. Also, in the assay on MDS/AML cell lines (pre-treated 24 hr, 10 μM, then plated), the “colony formation after transient exposure” value is “significantly fewer colonies”. Further, the “proliferation of normal CD34+ cells” value in [1] is recorded as “not affected”. The median survival in the assay with MDSL cells (MDSL pre-treated 10 μM 24 hrs, 5×10^6 cells i.v., control 68 days) is 80 days. Also, the “human MDSL graft” value in the assay with MDSL cells (peripheral blood, 28 days post-transplant, control 8%) is listed as 2%.

For orientation: IC50 means the concentration that inhibits the measured activity by half.
